Laboratory results as given in patent US4990499A, “Anti-herpes simplex virus activity of 5-alkoxymethyl-2'-deoxycytidimes and their 5-monophosphates” (priority 1989, dated 1991).
“Also recorded” adds a separate entry of the source.

Columns and labels:
HSV-1, KOS [1] = assay: HSV-1 KOS infectivity in Vero cells prior to washing of drugs; format: cell-based, Herpes simplex virus type 1; settings: at less than 2120 μM (500 μg/ml)
Method: Vero cells were infected with HSV-1, KOS strain and then treated with MMdCyd in various quantities, and also with MMdCyd in various quantities together with a constant amount of H4 dUrd. The virus infectivity was observed and the results are given in Table 5 and are shown graphically in FIG. 3.
^a Virus infectivity was scored using following parameters: rounding
of cells, plaque formation and loss of monolayer structure.
^b Concentration of H4 dUrd used was 530 μM (125 μg/ml).

in vitro = settings: monkey, vero cells
Method: (§2) The survival and viability of Vero cells grown in the presence of 2'-deoxyguanosine, H4 dUrd and deoxyguanosine+H4 dUrd was determined.

[2] = system: Deoxynucleoside Triphosphate (dNTP) Pools in Vero Cells Infected with Herpes Simplex Virus Type 1; assay: Deoxynucleoside triphosphate (dNTP) pools in HSV-1 infected Vero cells; format: cell-based
Method: Example 9 was repeated, except that the Vero cells subjected to the treatment had all been infected with HSV-1 KOS strain prior to the treatment.
^a Cells were infected with 10 PFU/cell of HSV1 KOS strain for one
hour. Treatments were given for seven hours.
^a Cells were infected with 10 PFU/cell of HSV1, KOS strain after
^b H4 dUrd in MEM was added immediately after adsorption and
^c H4 dUrd in MEM was added immediately after adsorption and
(§1) Vero cells and HSV-infected Vero cells were treated with dGUO and dGUO and H4 dUrd. The cells were then assayed for the presence of deoxynucleoside triphosphates. Untreated Vero cells were also assayed for the presence of deoxynucleoside triphophate to provide a control.
^c Cells were infected with 10 PFU/cell of HSV1 strain KOS for one

HSV-1, KOS [3] = assay: HSV-1 KOS infectivity (virus yield) in Vero cells after removal of drugs; format: cell-based, Herpes simplex virus type 1; settings: up to 2120 μM (highest concentration tested)
Method: Vero cells were infected with HSV-1, KOS strain and then samples of the infected cells were treated with MMdCyd in various quantities and with MMdCyd in various quantities together with 530 μM of H4 dUrd. Cells were washed twice with 0.4 ml of MEM to remove residual drug, overlaid with growth medium and incubated for 72 h. The virus was harvested by two cycles of freezing and thawing. The culture fluid from each treatment was pooled and assayed for virus yield.
^b H4 dUrd 530 μM (125 μg/ml) was added along with MMdCyd.

[4] = system: Deoxynucleoside Triphosphate (dNTP) Pools in Uninfected Vero Cells; assay: Deoxynucleoside triphosphate (dNTP) pools in uninfected (mock-infected) Vero cells; format: cell-based
Method: Vero cells were treated with MMdCyd, H4 dUrd and MMdCyd+H4 dUrd. The cells were then assayed for the presence of deoxynucleoside triphosphates. Untreated Vero cells were also assayed for the presence of deoxynucleoside triphosphates, to provide a control.
^a Cells were mock infected for one hour. Different treatments were
^b Values are means of at least two assays of triplicate cell
as §1
Vero cells were treated with N-methyl-MMdCyd. The cells were then assayed for dNTP pools.

[5] = system: Herpes simplex virus type 1 (HSV-1); assay: Antiviral activity against HSV-1, viral plaque reduction (ED50); format: cell-based; settings: FIG. 13; HSV-1 KOS and 76, Vero, 20 PFU
[6] = Survival and viability of Vero cells; settings: monkey, vero cells
Method: as §2

Vero cells = assay: Survival and viability of Vero cells; settings: up to 250 μM, rapidly dividing Vero cells
Method: as §2

[7] = system: Herpes simplex virus type 1 (HSV-1); assay: Antiviral activity against HSV-1, viral plaque reduction (ED50); format: cell-based; settings: FIG. 13; deoxyguanosine with MMdCyd
Method: Infected cells were treated with different concentrations of MMdCyd and the concentration required to reduce viral plaque formation by 50%, i.e. ED50, was determined.
^a ED50 : Concentration required to reduce viral plaque formatio
Vero cells were infected with the KOS strain of HSV-1. The compound of compounds indicated in Table 2, below, and are shown graphically in FIGS. 1, (H4 dUrd) and 2 (H4 Urd).
^a Antiviral assays were carried out using Vero cells. All compounds
were added immediately after virus infection.
The antiviral activity of MMdCyd in the presence of H4 dUrd was determined against several strains of HSV-1 and HSV-2.
Vero cells were infected with HSV-1, strain 76 and treated with MMdCyd at different times post virus infection.
The antiviral activity, ^a cyctotoxicity* and antiviral indices of MMdCyd in the presence of H4 dUrd, dGuo and H4 dUrd+dGuo were determined.
^a Antiviral assays were carried out using Vero cells. Compounds were
added immediately after virus infection. Virus HSV1, strains KOS and 76;
KOS, virus input = 50 PFU

[8] = Table 8, HSV-1 KOS infected Vero cells, 10 PFU/cell, treatment 7 hours, ± S.E.
[9] = Table 9, HSV-1 KOS infected, H4 dUrd pre-incubated 2 hours then removed, fresh MEM or MMdCyd
[10] = Table 7, uninfected Vero cells, treatment 7 hours, ± S.E.
[11] = Table 10, HSV-infected, dGUO 25 μM
[12] = Table 10, HSV-infected, dGUO 50 μM
[13] = Table 10, HSV-infected, dGUO 100 μM
[14] = Table 10, HSV-infected, dGUO 250 μM
[15] = Table 10, HSV-infected, dGUO 500 μM
[16] = Table 10, uninfected, dGUO 25 μM
[17] = Table 10, uninfected, dGUO 50 μM
[18] = Table 10, uninfected, dGUO 100 μM
[19] = Table 10, uninfected, dGUO 250 μM
[20] = Table 10, uninfected, dGUO 500 μM

**Q.** Which “antiviral activity of H4 dUrd alone” value (HSV-1, KOS [1]) does the source give for `O=C1NC(O)CCN1[C@H]1C[C@H](O)[C@@H](CO)O1` (stereo partly shown) [H4 dUrd, tetrahydro-2'-deoxyuridine] here?
**A.** did not exhibit antiviral activity

**Q.** What about the viability at 1000 µM (in vitro) of the same compound?
**A.** 100%

**Q.** And the dATP pool [2, 8]?
**A.** 94.7 ± 2.06 .rho.moles/10^6 cells

**Q.** And the dCTP pool [2, 8]?
**A.** 326 ± 12.6 .rho.moles/10^6 cells

**Q.** And the dGTP pool [2, 8]?
**A.** 101.3 ± 2.28 .rho.moles/10^6 cells

**Q.** And the dTTP pool [2, 8]?
**A.** 0.5 ± 0.34 .rho.moles/10^6 cells

**Q.** What about the dATP pool [2, 9] of the same compound?
**A.** 119.4 ± 3.1 .rho.moles/10^6 cells

**Q.** What about the dCTP pool [2, 9] of the same compound?
**A.** 312 ± 10.1 .rho.moles/10^6 cells

**Q.** And the dGTP pool [2, 9]?
**A.** 141 ± 2.6 .rho.moles/10^6 cells

**Q.** What about the dTTP pool [2, 9] of the same compound?
**A.** 2 ± 0.41 .rho.moles/10^6 cells

**Q.** And the “antiviral activity of H4 dUrd” value (HSV-1, KOS [3])?
**A.** did not exhibit antiviral activity; also recorded: no antiviral activity

**Q.** What about the dATP pool [4, 10] of the same compound?
**A.** 17.6 ± 1.28 .rho.moles/10^6 cells

**Q.** What about the dCTP pool [4, 10] of the same compound?
**A.** 30.8 ± 1.20 .rho.moles/10^6 cells

**Q.** What about the dGTP pool [4, 10] of the same compound?
**A.** 32 ± 1.3 .rho.moles/10^6 cells

**Q.** And the dTTP pool [4, 10]?
**A.** 27.5 ± 1.25 .rho.moles/10^6 cells

**Q.** With `Nc1nc2c(ncn2[C@H]2C[C@H](O)[C@@H](CO)O2)c(=O)[nH]1` [dGuo, 2'-deoxyguanosine] as the compound, how does the “effect on antiviral activity of MMdCyd” value [5] read?
**A.** markedly potentiated

**Q.** And the viability at 25 µM [6]?
**A.** 100%

**Q.** What about the viability at 50 µM [6] of the same compound?
**A.** 100%

**Q.** What about the viability at 100 µM [6] of the same compound?
**A.** 100%

**Q.** What about the viability at 250 µM [6] of the same compound?
**A.** 100%

**Q.** What about the viability at 500 µM [6] of the same compound?
**A.** 88%

**Q.** What about the viability at 1000 µM [6] of the same compound?
**A.** 63%

**Q.** What about the cytotoxicity (Vero cells) of the same compound?
**A.** devoid of cytotoxicity

**Q.** And the dATP pool [2, 11]?
**A.** 12 .rho.moles/10^6 cells

**Q.** And the dCTP pool [2, 11]?
**A.** 23 .rho.moles/10^6 cells

**Q.** And the dGTP pool [2, 11]?
**A.** 290 .rho.moles/10^6 cells

**Q.** What about the dTTP pool [2, 11] of the same compound?
**A.** 110 .rho.moles/10^6 cells

**Q.** What about the dATP pool [2, 12] of the same compound?
**A.** 12 .rho.moles/10^6 cells

**Q.** What about the dCTP pool [2, 12] of the same compound?
**A.** 33 .rho.moles/10^6 cells

**Q.** And the dGTP pool [2, 12]?
**A.** 373 .rho.moles/10^6 cells

**Q.** And the dTTP pool [2, 12]?
**A.** 118 .rho.moles/10^6 cells

**Q.** What about the dATP pool [2, 13] of the same compound?
**A.** 12 .rho.moles/10^6 cells

**Q.** What about the dCTP pool [2, 13] of the same compound?
**A.** 64 .rho.moles/10^6 cells

**Q.** What about the dGTP pool [2, 13] of the same compound?
**A.** 600 .rho.moles/10^6 cells

**Q.** And the dTTP pool [2, 13]?
**A.** 214 .rho.moles/10^6 cells

**Q.** And the dATP pool [2, 14]?
**A.** 14 .rho.moles/10^6 cells

**Q.** And the dCTP pool [2, 14]?
**A.** 78 .rho.moles/10^6 cells

**Q.** What about the dGTP pool [2, 14] of the same compound?
**A.** 558 .rho.moles/10^6 cells

**Q.** And the dTTP pool [2, 14]?
**A.** 233 .rho.moles/10^6 cells

**Q.** And the dATP pool [2, 15]?
**A.** 25 .rho.moles/10^6 cells

**Q.** And the dCTP pool [2, 15]?
**A.** 60 .rho.moles/10^6 cells

**Q.** And the dGTP pool [2, 15]?
**A.** 738 .rho.moles/10^6 cells

**Q.** And the dTTP pool [2, 15]?
**A.** 247 .rho.moles/10^6 cells

**Q.** And the dATP pool [4, 16]?
**A.** 18 .rho.moles/10^6 cells

**Q.** What about the dCTP pool [4, 16] of the same compound?
**A.** 13 .rho.moles/10^6 cells

**Q.** What about the dGTP pool [4, 16] of the same compound?
**A.** 42 .rho.moles/10^6 cells

**Q.** And the dTTP pool [4, 16]?
**A.** 17 .rho.moles/10^6 cells

**Q.** And the dATP pool [4, 17]?
**A.** 19 .rho.moles/10^6 cells

**Q.** What about the dCTP pool [4, 17] of the same compound?
**A.** 9 .rho.moles/10^6 cells

**Q.** What about the dGTP pool [4, 17] of the same compound?
**A.** 88 .rho.moles/10^6 cells

**Q.** And the dTTP pool [4, 17]?
**A.** 10 .rho.moles/10^6 cells

**Q.** What about the dATP pool [4, 18] of the same compound?
**A.** 19 .rho.moles/10^6 cells

**Q.** What about the dCTP pool [4, 18] of the same compound?
**A.** 11 .rho.moles/10^6 cells

**Q.** And the dGTP pool [4, 18]?
**A.** 76 .rho.moles/10^6 cells

**Q.** What about the dTTP pool [4, 18] of the same compound?
**A.** 13 .rho.moles/10^6 cells

**Q.** And the dATP pool [4, 19]?
**A.** 29 .rho.moles/10^6 cells

**Q.** What about the dCTP pool [4, 19] of the same compound?
**A.** 8 .rho.moles/10^6 cells

**Q.** What about the dGTP pool [4, 19] of the same compound?
**A.** 102 .rho.moles/10^6 cells

**Q.** What about the dTTP pool [4, 19] of the same compound?
**A.** 13 .rho.moles/10^6 cells

**Q.** And the dATP pool [4, 20]?
**A.** 19 .rho.moles/10^6 cells

**Q.** And the dCTP pool [4, 20]?
**A.** 7 .rho.moles/10^6 cells

**Q.** What about the dGTP pool [4, 20] of the same compound?
**A.** 146 .rho.moles/10^6 cells

**Q.** And the dTTP pool [4, 20]?
**A.** 6 .rho.moles/10^6 cells

**Q.** What about the “concentration giving maximal increase in antiherpes activity of MMdCyd” value [7] of the same compound?
**A.** 100 µM
